Experiments:
[1] = molecular target: T1, Hormone-sensitive lipase (HSL) (Homo sapiens, UniProt Q05469); test: Hormone-sensitive lipase (HSL) inhibition assay, 3H-labeled triolein or MOME substrate; assay type: biochemical; settings: read-out: HSL inhibition (IC50)
T1 sequence (Q05469 1-1076): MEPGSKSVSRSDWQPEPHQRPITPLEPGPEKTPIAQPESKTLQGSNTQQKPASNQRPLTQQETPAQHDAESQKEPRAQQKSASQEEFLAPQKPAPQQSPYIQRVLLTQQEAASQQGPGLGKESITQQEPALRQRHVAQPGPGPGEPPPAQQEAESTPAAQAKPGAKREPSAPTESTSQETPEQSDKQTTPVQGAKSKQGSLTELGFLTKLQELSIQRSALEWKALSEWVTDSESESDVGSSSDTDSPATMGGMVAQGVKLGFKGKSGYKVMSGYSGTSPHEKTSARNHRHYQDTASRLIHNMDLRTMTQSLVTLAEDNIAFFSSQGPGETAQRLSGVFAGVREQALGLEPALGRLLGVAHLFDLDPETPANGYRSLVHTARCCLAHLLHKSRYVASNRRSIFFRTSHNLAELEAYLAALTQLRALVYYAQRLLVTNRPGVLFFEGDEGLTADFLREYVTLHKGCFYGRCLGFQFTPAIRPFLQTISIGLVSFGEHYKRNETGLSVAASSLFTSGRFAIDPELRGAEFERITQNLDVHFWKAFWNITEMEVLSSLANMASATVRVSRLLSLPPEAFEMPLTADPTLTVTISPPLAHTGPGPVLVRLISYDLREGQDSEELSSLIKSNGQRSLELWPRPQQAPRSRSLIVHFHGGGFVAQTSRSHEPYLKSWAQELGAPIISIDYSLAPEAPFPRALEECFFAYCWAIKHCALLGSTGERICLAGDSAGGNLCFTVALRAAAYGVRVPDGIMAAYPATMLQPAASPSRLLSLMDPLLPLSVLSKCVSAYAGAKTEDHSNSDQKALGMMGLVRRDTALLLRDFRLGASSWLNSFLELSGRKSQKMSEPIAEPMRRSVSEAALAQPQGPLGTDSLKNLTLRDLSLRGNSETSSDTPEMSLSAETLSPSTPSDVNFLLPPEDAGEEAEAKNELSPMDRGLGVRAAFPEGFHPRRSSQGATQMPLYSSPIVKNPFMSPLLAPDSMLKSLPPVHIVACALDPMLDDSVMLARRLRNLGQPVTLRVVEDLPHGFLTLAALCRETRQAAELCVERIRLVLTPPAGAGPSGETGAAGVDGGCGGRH
Text: (§1) Hormone-sensitive lipase (HSL) [classified as a triacylglycerol lipase, EC 3.1.1.3, in accordance with the Recommendations of the Nomenclature Committee of the International Union of Biochemistry and Molecular Biology (available on the World Wide Web at the following address: http://www.chem.qmw.ac.uk/iubmb/enzyme/)]
Materials. The Hormone-sensitive lipase employed was provided by Dr. Cecilia Holm of Lund University, Sweden, or produced and purified by Novo Nordisk (NN) using the reagents and protocols employed by Dr. Holm. The substrates used are: ^3H-labeled triolein (TO) from Amersham, Buckinghamshire, U.K. cat No. TRA191; 5-20 Ci/mmol dissolved in toluene, triolein (Sigma, Cat. No. T-1740) and mono-oleoyl-2-O-mono-oleylglycerol (MOME) synthesized at (NN) using the protocols provided by Dr. Cecilia Holm, Lund University, Sweden. Phosphatidyl choline (PC) and phosphatidyl inositol (PI) are from Sigma (St Luis Mo., cat. Nos. P-3556 and P-5954, respectively). All other reagents are of commercial grade and obtained from various commercial sources.
Methods. The preparation of the substrates is as follows:
TO: 30 μl PC:PI (20 mg/ml solution of PC:PI 3:1 prepared in chloroform)+128 μl cold TO+15 μl ^3H-TO
MOME: 30 μl PC:PI+100 μl cold MOME+200 μl ^3H-MOME
They are then evaporated under a gentle stream of N2 followed by 20-30 minutes in a Speedvac™ apparatus to ensure the absence of residual solvent.
The samples are prepared as follows:
Samples/controls: 78 μl PED-BSA+20 μl inhibitor (various concentrations)+2 μl HSL (undiluted 0.12 mg/ml). If no inhibitors are being tested, the reaction contains 98 μl PED-BSA+2 μl HSL.
The samples are put on ice and then sonicated as follows:
With TO as substrate, add 2 ml potassium buffer (0.1M potassium phosphate, pH 7) and then sonicate twice for 1 minute, with a 1-minute interval between cycles. Add an additional 1 ml potassium buffer and sonicate 4 times for 30 seconds, with a 30 second interval in between cycles. To finish, add 1 ml BSA 20%-in potassium buffer, mix by inversion and store on ice until use.
With MOME as substrate: add 2 ml potassium buffer and then sonicate twice for 1 minute, with a 1 minute interval between cycles. Add 1.6 ml potassium buffer and sonicate 4 times for 30 seconds, with a 30-second interval between cycles. To finish, add 0.4 ml BSA 20%-buffer, mix by inversion and store on ice until use.
The enzyme reaction is run at 37° C. The substrate mix is added to the various reactions at 10 second intervals, incubated for 30 minutes in a water bath and then stopped with 3.25 ml of a solution containing CH3OH:CHCl3:heptane (10:9:7). After the addition of 1.05 ml potassium buffer pH10.5, the sample is vortexed thoroughly and centrifuged for 20 min at 2000 r.p.m. One ml of the upper phase is added to 10 ml scintillation fluid, and mixed thoroughly by shaking.
The samples are then counted, 5 min per vial, in a scintillation counter.

Hepatic lipase (HL) = molecular target: T2, Hepatic lipase (HL) (Homo sapiens, UniProt P11150); test: Hepatic lipase (HL) inhibition assay, 3H-triolein substrate; assay type: biochemical; settings: read-out: HL inhibition (% inh. at 50 μM)
T2 sequence (P11150 23-499): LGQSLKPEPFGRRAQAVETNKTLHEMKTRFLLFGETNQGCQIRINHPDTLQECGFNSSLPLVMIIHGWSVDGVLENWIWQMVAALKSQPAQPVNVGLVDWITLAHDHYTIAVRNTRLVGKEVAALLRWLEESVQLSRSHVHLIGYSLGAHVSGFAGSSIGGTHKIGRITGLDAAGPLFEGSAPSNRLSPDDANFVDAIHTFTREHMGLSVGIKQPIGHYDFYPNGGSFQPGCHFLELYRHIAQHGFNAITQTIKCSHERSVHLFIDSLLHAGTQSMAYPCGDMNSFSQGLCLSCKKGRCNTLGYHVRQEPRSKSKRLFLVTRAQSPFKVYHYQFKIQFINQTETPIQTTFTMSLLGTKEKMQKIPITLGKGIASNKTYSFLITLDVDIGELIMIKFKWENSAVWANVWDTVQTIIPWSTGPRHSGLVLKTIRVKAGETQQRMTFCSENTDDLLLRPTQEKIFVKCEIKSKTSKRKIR
Text: as §1, with “Hepatic Lipase (HL)” for “Hormone-sensitive lipase (HSL)”
Materials. The hepatic lipase employed was obtained from Dr. Howard Wong of the University of California at Los Angeles (UCLA), USA, or produced and purified using the methods and a cell line provided by Dr. Wong's laboratory. ^3H-triolein (TO) from Amersham, Buckinghamshire, U.K., cat No. TRA191; 5-20 Ci/mmol dissolved in toluene and triolein (Sigma, Cat. No. T-1740). All other reagents are of commercial grade and obtained from various commercial sources.
50 μl TO in a 20 ml scintillation vial and evaporate with N2 for 5 minutes.
Add 1 ml 10% gum arabic and 1.25 ml Tris-Cl pH 8.5 and 2 ml MilliQ water.
Sonicate, on ice, 16 times for 30 seconds with a 30-second interval between cycles.
Add 2.5 ml of 5 M NaCl+2.5 ml BSA (10% in Milli Q, pH 8)+3.25 ml Milli Q
Total volume: 12.5 ml (for 80 reactions )
If an inhibitor is going to be used, it should be incubated with the 50 μl HL (of a 125 mU/ml solution) for 70 minutes at 25° C. A 5 μl aliquot from the incubated 50 μl is added to 150 μl assay mix+45 μl Milli Q™ water and mixed.
Incubate for exactly 30 minutes at 25° C.
Stop the reaction with Methanol:chloroform:heptane 10:9:7: 3.25 ml/vial, mix; then add 1.05 ml buffer (100 mM boric acid, 100 mM potassium carbonate pH 10.5), mix for 10 seconds per vial.
Centrifuge for 20 min/2000 rpm
Take 1 ml of the upper phase+10 ml scintillation fluid and mix by shaking by hand.
Scintillation count for 5 minutes per vial.

Compound: O=C(NN1CCc2ccccc2C1)Oc1ccccc1 [Example 1, (3,4-Dihydro-1H-isoquinolin-2-yl)-carbamic Acid Phenyl Ester]
- IC50 [1]: 200 nM
- inhibition at 50 µM (Hepatic lipase (HL)): 5%

— patent US20020082254A1, “Compounds for treating disorders where a decreased level of plasma FFA is desired” (priority 2000, published 2002)
